Test: Stabilization of polyesters (rancimate, conductivity of separation products)
Details: 0.20% stabilizer; 1 hour under pure oxygen at 290° C.; without stabilizer 47
Procedure: 2.5 kg of a polyester which has been dried for 12 hours at 120° C. in a vacuum drying oven (Polyclear® T86, of Hoechst) is charged with the stabilizers listed in Table 23 and is mixed for 2 hours in a Henschel mixer. This mixture is then extruded in a Schwabenthan extruder at a maximum of 275° C. The polymer string is then granulated. The granulate so obtained is dried for another 12 hours in a vacuum drying oven. In a double determination, 500 mg of the granulate is heated over 10 minutes to 290° C. and is stored for 1 hour under pure oxygen in a rancimate at 290° C. The resulting gaseous separation products are continuously led into an aqueous collecting solution and the conductivity (μS) of this solution is continuously measured. Low conductivity values signify that few separation products are formed, high conductivity values signify that very many separation products are formed. […]

CC(C)(C)c1cc2c(c(C(C)(C)C)c1)OC(=O)C2c1cccc(C#N)c1 (stereo not shown) [Compound (107)]
Conductivity: 34 μS
